Assay results taken from patent publication US7176352B1, “Transgenic Lemnaceae” (Yeda Research and Development Company Ltd., priority 1997, dated 2007).

Key:
[1] = test system: Spirodela punctata plants; assay: GUS expression of transformed plants grown on kanamycin or BASTA supplemented SP medium; format: in vivo; details: supplement 2 μg/ml in SP medium, 2 to 5 weeks
Experimental: The method involved wounding plants, co-cultivating them with 5×10^8 bacteria ml^−1 (A. tumefaciens strain EHA105 harboring Ti plasmid pME504) for 30 min. and vacuum infiltration (30 mbar, for 5–10 min). Transformed Spirodela punctata plants were grown in SP medium (Table 2) supplemented with 2 μg/ml kanamycin for 2 to 5 weeks. Six green plants resistant to kanamycin, and a sampling of bleached ones, were assayed for GUS expression.

[2] = test system: Calli of Spirodela punctata var. Helgm; assay: Regeneration of plants from Spirodela calli; format: in vivo; details: B-5 medium, 1% sucrose, scored after 2 weeks; for Regenerating calli No.: 30 calli
Experimental: Spirodela calli were maintained on B-5 medium (Table 6 below) supplemented with 1.0% sucrose, 3 mg/l 2IP and 10 mg/l 2,4-D. For regeneration, calli were transferred to B-5 medium supplemented with 1,0% sucrose and 2 mg/l 2IP. Fully regenerated S. punctata plants were efficiently obtained within 1–2 weeks. Spirodela calli and the regenerated plants, were grown at 26° C. under continuous fluorescent light (30 μE m^−2s^−1).
Calli of Spirodela punctata var. Helgm, maintained for 7 to 16 weeks on B-5 medium supplemented with 1% sucrose, […] 2IP and 10 mg/l 2,4-D, were transferred to B-5 medium supplemented with 1% sucrose and different concentrations of 2IP. Regenerated plants were visually scored after 2 weeks.

NC[C@H]1O[C@H](O[C@H]2[C@H](O)[C@@H](O[C@H]3O[C@H](CO)[C@@H](O)[C@H](N)[C@H]3O)[C@H](N)C[C@@H]2N)[C@H](O)[C@@H](O)[C@@H]1O [Kanamycin]
GUS expression (% fronds) Bleached plants ([1]; bleached plants): 0 % fronds
GUS expression (% fronds) Green plants ([1]; green resistant plants): 83 % fronds

CC(C)=CCNc1ncnc2nc[nH]c12 [2 IP]
Regenerating calli (%) ([2]; 2 IP 2 mg/l): 73%
Regenerating calli No. ([2]; 2 IP 2 mg/l): 22
Regenerating calli (%) ([2]; 2 IP 10 mg/l): 0%
Regenerating calli No. ([2]; 2 IP 10 mg/l): 0
